Source: US9474744B2, “Beta-lactam compounds for treating diabetes” (STEM CELL MEDICINE LTD., priority 2011, dated 2016)

Columns and labels:
[1] = target: T1, albumin of human CD3 T cells (Homo sapiens, UniProt P02768); experiment: Western blot with Pen 9 antibody of antibiotic-treated human T cells; assay type: cell-based; details: T cells activated by mitogen in presence of antibiotic
T1 construct: endogenous in cells; host or cells: primary human peripheral-blood T cells (CD3+, CD4+ or CD8+) from healthy donors
Method: Rat tissues were ground with a tissue grinder in lysis buffer. The homogenate was centrifuged 14000 g for 15 min in 4° C. and the supernatant was used for western blotting. The protein concentration was determined using the BIO-RAD DC™ protein assay (Bio-Rad laboratories, Hercules, Calif.). Following electrophoresis in SDS gel in a mini-gel apparatus (Bio-Rad), the gels were electro-transferred to nitrocellulose membranes (Schleicher and schuell, Dassel, Germany). The nitrocellulose membranes were washed with distilled water for 5 min, and then blocked for 60 min. using a blocking solution composed of 2% bovine serum albumin (Fraction V, Sigma, St. Louis Mo.), 2.5% milk powder (Bio-Rad), Tris (Sigma) pH 7.5 10 mM, NaCl 150 mM and 0.02% thimerosal (Sigma). After 3×10 min. washes in PBS/TWEEN® 20 (PBS/T; 0.02%, Sigma), primary antibodies (1/1000) were incubated with the membranes in PBS/TWEEN® for 60 min. Following another series of washes in PBS/T (3×10 min), the membranes were incubated with a secondary antibody (Peroxidase conjugated anti rabbit or anti mouse, IgG Jackson ImmunoResearch, West Grove, Calif.) at a 1/2500 dilution in 2% milk in PBS solution for 60 min. After another 3×10 min washes, the membranes were incubated with the ECL reagent (for 60 seconds) and exposed to X-ray film.

[2] = system: NOD mice; experiment: Development of autoimmune diabetes in NOD mice; assay type: in vivo, mouse
Description: Inbred female Lewis rats and NOD (non-obese diabetic) mice were supplied by the animal breeding center of the Weizmann Institute of Science, Israel, under the supervision of Harlan Laboratories and were used at 2-3 months of age. Experiments were approved by the Institutional Animal Care and Use Committee. Human peripheral blood lymphocytes from healthy donors were obtained from the blood bank of Sheba Medical Center, Tel Hashomer, Israel.
NOD mice spontaneously develop diabetes mellitus similar to type I diabetes in humans. […] The mice were followed for the development of diabetes, marked by blood sugar above 300 mg/dl on 2 measurements.

[3] = system: CD4+ human T cells; experiment: Real-time PCR verification of six gene-array genes; assay type: cell-based; details: cDNA from the same RNA as the gene array; normalised to B2M
Method: To verify the results of the gene array, we synthesized real-time PCR primers (designed with the […]® probe design software (Roche)). Real-time PCR of 6 selected genes was performed using a […]® (Roche, Basel, Switzerland). RNA was reverse transcribed to cDNA from 1 μg of total RNA, which was then subjected to quantitative RT-PCR performed essentially according to the manufacturer's instructions. Specific primer pairs were used to amplify specific genes in the presence of 3 mM MgCl2. PCR was performed in triplicate in a total volume of 20 μl of […]® HotStart DNA SYBR Green I mix (Roche) containing primer and 5 μl of cDNA. […] Denaturation was performed for 15 s at 95° C., annealing was performed in 60° C., and the extension was performed at 72° C. for 20 s, with fluorescence detection at 72° C. after each cycle. After the final cycle, melting point analyses of all samples were performed within the range of 62-95° C. with continuous fluorescence detection. […]
The Human Autoimmune and Inflammatory Response Gene Array (SuperArray Bioscience corporation, Frederick, Md., USA) was used for analysis of gene expression by the T cells. […] To verify the results detected by the gene array study, a panel of six genes was designed and tested by real-time PCR: CCR4, ACVR2, JAK1, STAT4, TLR2 and NFKBIE. […]

T1 sequence (P02768 25-609): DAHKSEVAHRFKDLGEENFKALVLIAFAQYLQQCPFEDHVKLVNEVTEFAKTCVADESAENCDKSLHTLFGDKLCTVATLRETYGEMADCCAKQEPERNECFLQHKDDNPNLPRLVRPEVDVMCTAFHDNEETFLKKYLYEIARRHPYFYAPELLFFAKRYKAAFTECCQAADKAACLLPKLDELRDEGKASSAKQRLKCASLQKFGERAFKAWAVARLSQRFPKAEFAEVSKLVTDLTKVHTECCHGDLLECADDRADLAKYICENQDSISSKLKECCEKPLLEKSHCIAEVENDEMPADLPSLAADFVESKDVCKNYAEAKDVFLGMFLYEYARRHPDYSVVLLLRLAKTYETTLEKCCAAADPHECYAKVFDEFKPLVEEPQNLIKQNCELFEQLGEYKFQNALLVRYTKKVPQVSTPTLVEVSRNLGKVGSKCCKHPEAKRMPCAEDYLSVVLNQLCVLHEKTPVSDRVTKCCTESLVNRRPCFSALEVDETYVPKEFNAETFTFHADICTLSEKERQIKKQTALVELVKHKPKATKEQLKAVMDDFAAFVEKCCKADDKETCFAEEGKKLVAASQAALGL

SMILES	Pen 9 reactivity with lysates of antibiotic-treated T cells [1]	development of type I diabetes in NOD mice ([2]; FIG. 1D)	incidence of diabetes ([2]; at 5.7 months, s.c. at weekly intervals, ampicillin 1300 μg or ceftriaxone 675 μg per mouse, blood sugar above 300 mg/dl on 2 measurements, control 60%) [%]	expression of CCR4, ACVR2, JAK1, STAT4, TLR2 and NFKBIE by real-time PCR [3]
CC1(C)S[C@@H]2[C@H](NC(=O)[C@H](N)c3ccccc3)C(=O)N2[C@H]1C(=O)O [ampicillin]	did not bind	Inhibition of type I diabetes	30	–
CO/N=C(\C(=O)N[C@@H]1C(=O)N2C(C(=O)O)=C(COC(N)=O)CS[C@H]12)c1ccco1 [cefuroxime]	–	–	–	suppressed
